Measurements: patent US9630962B2, “4-amino-6-(2,6-dichlorophenyl)-2-(phenylamino)-pyrido[2,3-d]pyrimidin-7(8H)-one derivatives, synthesis and uses thereof” (INSTITUT QUÍMIC DE SARRIÁ, CETS FUNDACIÓ PRIVADA, priority 2013, dated 2017)
Where two headings read alike, the source gives them in different places.

Key:
[1] = target: T1, SYK aa1-635 (Homo sapiens, UniProt P43405); test: Radiometric protein kinase assay (33PanQinase Activity Assay), residual activity; assay type: biochemical; conditions: 10 μM (1×10^−05 M) test compound, singlicate
T1 construct: BTK, LYN, SYK aa1-635; purchased ProQinase; host or cells: Sf9 insect cells or E. coli (not specified per kinase)
Experimental: (§1) The kinase inhibition profile of compounds of formula (I) was evaluated at Proqinase (http://www.proqinase.conn) by measuring residual activity values at a concentration of 10 μM of the test compound in singlicate in front of the following kinases: BTK, LYN, SYK aa1-635 using the following protocol:
(§2) The compounds were dissolved to 1×10^−03 M stock solutions in 100% DMSO. Subsequently, 100 μl of each stock solution were transferred into wells A3-F12 of a microtiter plate (“master plate”). Wells A1-F2 were filled with 100 μl 100% DMSO as controls. 5×10 μl of the master plate were aliquoted into 5 copy plates, which were stored at −20° Celsius until use. For the testing of each group of up to 8 kinases, one copy plate was used.
(§3) In the process, 90 μl H2O were added to each well of a copy plate. To minimize precipitation, the H2O was added to each well only a few minutes before the transfer of the compound solutions into the assay plates. The plate was shaken thoroughly, resulting in a “compound dilution plate” with a compound concentration of 1×10^−04 M/10% DMSO. This plate was used for the transfer of 5 μl compound solution into the assay plates. The final volume of the assay was 50 μl. All compounds were tested at 1×10^−05 M in singlicate. The final DMSO concentration in the reaction cocktails was 1% in all cases. The compound dilution plates were disposed at the end of each working day.
(§4) A radiometric protein kinase assay (^33PanQinase® Activity Assay) was used for measuring the kinase activity of the corresponding protein kinases. All kinase assays were performed in 96-well FlashPlates™ from Perkin Elmer (Boston, Mass., USA) in a 50 μl reaction volume. The reaction cocktail was pipetted in 4 steps in the following order: • 10 μl of non-radioactive ATP solution (in H2O) • 25 μl of assay buffer/[γ-33P]-ATP mixture • 5 μl of test sample in 10% DMSO • 10 μl of enzyme/substrate mixture
(§5) The protein kinase reaction cocktails were incubated at 30° C. for 60 minutes. The reaction was stopped with 50 μl of 2% (v/v) H3PO4, plates were aspirated and washed two times with 200 μl 0.9% (w/v) NaCl. All assays were performed with a BeckmanCoulter Biomek 2000/SL robotic system. Incorporation of ^33Pi (counting of “cpm”) was determined with a microplate scintillation counter (Microbeta, Wallac).
(§6) All protein kinases provided by ProQinase were expressed in Sf9 insect cells or in E. coli as recombinant GST-fusion proteins or His-tagged proteins. All kinases were produced from human cDNAs and purified by either GSH-affinity chromatography or immobilized metal. Affinity tags were removed from a number of kinases during purification. The purity of the protein kinases was examined by SDS-PAGE/Coomassie staining, the identity was checked by mass spectroscopy.
(§7) For each kinase, the median value of the cpm of six wells of column 1 of each assay plate was defined as “low control” (n=6). This value reflects unspecific binding of radioactivity to the plate in the absence of a protein kinase but in the presence of the substrate. Additionally, for each kinase the median value of the cpm of six wells of column 2 of each assay plate was taken as the “high control”, i.e. full activity in the absence of any inhibitor (n=6). The difference between high and low control of each enzyme was taken as 100% activity.
(§8) As part of the data evaluation the low control of each kinase was subtracted from the high control value as well as from their corresponding “compound values”. The residual activity (in %) for each compound well was calculated by using the following formula: Res. Activity (%)=100×[(signal of compound −low control)/(high control −low control)] Results
(§9) The singlicate residual activity values of the tested compounds at one concentration (1×10^−05 M) in singlicate in the required protein kinase assays are given.

[2] = target: T2, LYN (Homo sapiens, UniProt P07948); test: as above; assay type: biochemical; conditions: 10 μM (1×10^−05 M) test compound, singlicate
T2 construct: purchased ProQinase; host or cells: Sf9 insect cells or E. coli (not specified per kinase)
T2 sequence (P07948 whole entry): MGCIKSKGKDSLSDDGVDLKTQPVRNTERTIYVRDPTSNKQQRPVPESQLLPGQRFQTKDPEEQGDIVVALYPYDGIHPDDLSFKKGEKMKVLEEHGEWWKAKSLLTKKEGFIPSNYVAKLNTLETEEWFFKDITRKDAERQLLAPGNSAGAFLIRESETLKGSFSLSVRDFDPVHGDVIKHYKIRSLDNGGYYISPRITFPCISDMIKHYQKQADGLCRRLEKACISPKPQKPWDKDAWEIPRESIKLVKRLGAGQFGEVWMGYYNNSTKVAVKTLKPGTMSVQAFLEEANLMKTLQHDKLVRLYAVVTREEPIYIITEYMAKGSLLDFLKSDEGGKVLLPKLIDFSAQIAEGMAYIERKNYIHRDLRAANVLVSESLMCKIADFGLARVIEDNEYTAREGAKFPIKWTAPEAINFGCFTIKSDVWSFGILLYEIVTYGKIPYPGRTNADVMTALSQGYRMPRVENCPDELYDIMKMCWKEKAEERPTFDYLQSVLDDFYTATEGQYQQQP
Experimental: as §1, §2, §3, §4, §5, §6, §7, §8, §9

[3] = target: T3, BTK (Homo sapiens, UniProt Q06187); test: as above; assay type: biochemical; conditions: 10 μM (1×10^−05 M) test compound, singlicate
T3 construct: purchased ProQinase; host or cells: Sf9 insect cells or E. coli (not specified per kinase)
T3 sequence (Q06187 whole entry): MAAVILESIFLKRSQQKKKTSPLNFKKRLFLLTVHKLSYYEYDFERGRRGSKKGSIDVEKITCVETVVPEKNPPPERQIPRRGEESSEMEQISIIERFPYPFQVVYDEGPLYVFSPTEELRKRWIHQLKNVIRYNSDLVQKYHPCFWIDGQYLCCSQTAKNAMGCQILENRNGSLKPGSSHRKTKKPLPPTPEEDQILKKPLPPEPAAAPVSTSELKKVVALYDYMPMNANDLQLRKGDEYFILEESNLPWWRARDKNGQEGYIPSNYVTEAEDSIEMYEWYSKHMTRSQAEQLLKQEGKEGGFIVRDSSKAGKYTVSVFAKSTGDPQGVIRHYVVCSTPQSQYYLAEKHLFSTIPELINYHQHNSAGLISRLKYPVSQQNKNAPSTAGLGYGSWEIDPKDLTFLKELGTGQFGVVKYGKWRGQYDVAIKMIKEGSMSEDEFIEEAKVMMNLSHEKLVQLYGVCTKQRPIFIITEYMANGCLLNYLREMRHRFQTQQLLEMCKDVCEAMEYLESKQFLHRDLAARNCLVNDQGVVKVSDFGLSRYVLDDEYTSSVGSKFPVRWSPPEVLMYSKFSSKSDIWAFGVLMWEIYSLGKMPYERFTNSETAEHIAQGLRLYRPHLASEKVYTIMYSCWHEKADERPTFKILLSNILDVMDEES
Experimental: as §1, §2, §3, §4, §5, §6, §7, §8, §9

[4] = system: PhosphoY223-Btk; test: Flow cytometry of intracellular PhosphoY223-Btk; assay type: cell-based; conditions: 5 μM, 6 h
Experimental: Analysis of B-Cell Receptor (BCR) activation signaling molecules by Western Blot and flow cytometry. Total protein extracts in 1% Triton X-100 plus protease and phosphatase inhibitors were made from cells treated with a range of doses of the indicated compound (0.1, 1, 5 and 10 μM). These cells lysates were resolved by standard SDS-PAGE (sodium dodecyl sulfate polyacrylamide gel electrophoresis), transferred to PVDF (polyvinylidene difluoride) membranes and incubated overnight with the indicated primary antibodies (pSyk, pLyn and β-actin) followed by species-matched secondary horseradish peroxidase (HRP)-labelled antibodies. Chemiluminiscence was developed adding ECL (enhanced chemilumiscence) reagent and signal was captured in a LAS4000 device using Image Gauge software (Fujifilm). Intracellular amount of PhosphoY223-Btk was determined by inmunostaining with an anti-phosphoY223-Btk-PE antibody (clone N35-86), using IgG1 K isotype-PE as negative control (BD Biosciences). […] Finally, cells were washed with PBS containing 1% BSA, resuspended in 500 μl PBS and analyzed by flow cytometry in an Attune acoustic focusing cytometer (Life Technologies). The Mean Fluorescence Ratio (MFIR) between the mean fluorescence intensity of Btk-PE signal and isotypic control was then calculated for both untreated and treated conditions. […]
To further assess the inhibitory effect of 4-amino-6-(2,6-dichlorophenyl)-8-methyl-2-(4-(4-methylpiperazin-1-yl)phenylamino)pyrido[2,3-d]pyrimidin-7(8H)-one (Example 5) on the activity of BCR kinases, a set of 4 cell lines representative of each entity was exposed for 6 h to increased doses of 4-amino-6-(2,6-dichlorophenyl)-8-methyl-2-(4-(4-methylpiperazin-1-yl)phenylamino)pyrido[2,3-d]pyrimidin-7(8H)-one (Example 5) and cell contents in phospho-Syk and phospho-Lyn were analysed by SDS-PAGE and western blotting with specific antibodies, using β-actin as a loading control. […]

[5] = system: DLBCL cell lines; test: MTT proliferation assay, growth inhibition; assay type: cell-based; conditions: n = 4 cell lines
Experimental: (§10) Cell culture: cell lines were grown in suitable culture media at 37° C. in a humidified atmosphere containing 5% CO2. The following MCL cell lines were used in the assays: Rec-1, HBL-2, UPN-1, Jeko-1, JVM-2, Maver-1, Mino, Granta-519, and Z-138. The following CLL cell lines were used in the assays: MEC-2, JVM-13, and MEC-1. The following FL cell lines were used in the assays: DoHH-2, WSU-NHL, WSU-FSCCL, and SC-1. The following DLBCL cell lines were used in the assays: OCI-LY8, SUDHL-8, U-2932, and SUDHL-16. The following media were used for the indicated cell lines: RPMI 1640+10% foetal bovine serum (FBS) for Rec-1, HBL-2, UPN-1, JVM-2, MAVER, Z138, Mino, JVM-13, WSU-NHL, WSU-FSCCL, DOHH2, SC-1 and U2932; RPMI 1640+20% FBS for Jeko-1, SUDHL-8 and SUDHL-16; DMEM+10% FBS for Granta-519; IMDM+10% FBS for MEC-1 and MEC-2; IMDM+20% FBS for OCI-LY8.
(§11) Analysis of the growth inhibition is carried out using the MTT (Thiazolyl Blue Tetrazolium Bromide) proliferation assay: cells grown in exponential phase were seeded in 96 well plates at 0.5×10^6 cell/ml and treated with 4-amino-6-(2,6-dichlorophenyl)-8-methyl-2-(4-(4-methylpiperazin-1-yl)phenylamino)pyrido[2,3-d]pyrimidin-7(8H)-one (Example 5) at the doses of 0.5, 1.5, 10, 20, 50 and 100 μM. After 24 h or 48 h, MTT reagent was added to each well, incubated for 2 h and plates were then read in a Synergy-HT Multi-Mode Microplate Reader (Biotek).

[6] = system: MCL cell lines; test: MTT proliferation assay, growth inhibition; assay type: cell-based; conditions: N9, n = 9 cell lines
Experimental: as §10, §11

[7] = system: FL cell lines; test: MTT proliferation assay, growth inhibition; assay type: cell-based; conditions: n = 4 cell lines
Experimental: as §10, §11

[8] = system: CLL cell lines; test: MTT proliferation assay, growth inhibition; assay type: cell-based; conditions: n = 3 cell lines
Experimental: as §10, §11

[9] = system: panel of 20 NHLs cell lines; test: MTT proliferation assay, growth inhibition; assay type: cell-based; conditions: all tested cell lines
Experimental: as §10, §11

[10] = system: phospho-Syk; test: Western blot of BCR kinase phosphorylation in NHL cell lines; assay type: cell-based; conditions: 6 h, UPN-1, JVM-13, DoHH-2, SUDHL-16 cells
Experimental: (§12) Analysis of B-Cell Receptor (BCR) activation signaling molecules by Western Blot and flow cytometry. Total protein extracts in 1% Triton X-100 plus protease and phosphatase inhibitors were made from cells treated with a range of doses of the indicated compound (0.1, 1, 5 and 10 μM). These cells lysates were resolved by standard SDS-PAGE (sodium dodecyl sulfate polyacrylamide gel electrophoresis), transferred to PVDF (polyvinylidene difluoride) membranes and incubated overnight with the indicated primary antibodies (pSyk, pLyn and β-actin) followed by species-matched secondary horseradish peroxidase (HRP)-labelled antibodies. Chemiluminiscence was developed adding ECL (enhanced chemilumiscence) reagent and signal was captured in a LAS4000 device using Image Gauge software (Fujifilm). Intracellular amount of PhosphoY223-Btk was determined by inmunostaining with an anti-phosphoY223-Btk-PE antibody (clone N35-86), using IgG1 K isotype-PE as negative control (BD Biosciences). After the different treatments, cells (5×10^5) were fixed in 4% paraformaldehyde in PBS (15 min, 4° C.), permeabilized with cold methanol (10 min, −20° C.), washed with PBS containing 1% BSA and incubated with the indicated antibodies at room temperature for 15 min. Finally, cells were washed with PBS containing 1% BSA, resuspended in 500 μl PBS and analyzed by flow cytometry in an Attune acoustic focusing cytometer (Life Technologies). The Mean Fluorescence Ratio (MFIR) between the mean fluorescence intensity of Btk-PE signal and isotypic control was then calculated for both untreated and treated conditions. These MFIR were then referred to the untreated control (r).
(§13) To further assess the inhibitory effect of 4-amino-6-(2,6-dichlorophenyl)-8-methyl-2-(4-(4-methylpiperazin-1-yl)phenylamino)pyrido[2,3-d]pyrimidin-7(8H)-one (Example 5) on the activity of BCR kinases, a set of 4 cell lines representative of each entity was exposed for 6 h to increased doses of 4-amino-6-(2,6-dichlorophenyl)-8-methyl-2-(4-(4-methylpiperazin-1-yl)phenylamino)pyrido[2,3-d]pyrimidin-7(8H)-one (Example 5) and cell contents in phospho-Syk and phospho-Lyn were analysed by SDS-PAGE and western blotting with specific antibodies, using β-actin as a loading control. […] For the evaluation of phospho-Btk protein levels, cell lines were treated as above with a 5 μM dose of the compound and stained with an anti-phospho-Btk phycoerythin(PE)-labeled antibody followed by flow cytometry analysis.

[11] = system: phospho-Lyn; test: as above; assay type: cell-based; conditions: 6 h, UPN-1, JVM-13, DoHH-2, SUDHL-16 cells
Experimental: as §12, §13

[12] = 24 h, read-out: GI50 range at 24 h
[13] = 24 h, read-out: Mean GI50 at 24 h
[14] = 48 h, read-out: GI50 range at 48 h
[15] = 48 h, read-out: Mean GI50 at 48 h

For `Cn1c(=O)c(-c2c(Cl)cccc2Cl)cc2c(N)nc(Nc3ccc(OCCN4CCOCC4)cc3)nc21` [Example 7, 4-amino-6-(2,6-dichlorophenyl)-8-methyl-2-(4-(2-morpholinoethoxy)-phenylamino)-pyrido[2,3-d]pyrimidin-7(8H)-one], the remaining activity at 10 µM [1] was 44%, the remaining activity at 10 µM [2] was 0% and the remaining activity at 10 µM [3] was 16%.

In the case of `CN1CCN(c2ccc(Nc3nc(N)c4cc(-c5c(Cl)cccc5Cl)c(=O)n(C)c4n3)cc2)CC1` [Example 5, 4-amino-6-(2,6-dichlorophenyl)-8-methyl-2-(4-(4-methylpiperazin-1-yl)phenylamino)pyrido[2,3-d]pyrimidin-7(8H)-one], the “downregulation of phospho-Btk (decrease of mean fluorescence intensity ratio)” value ([4]; DoHH-2 cells) is reported as 60%, the “downregulation of phospho-Btk (decrease of mean fluorescence intensity ratio)” value ([4]; JVM-13 cells) is reported as 60% and the “downregulation of phospho-Btk (decrease of mean fluorescence intensity ratio)” value ([4]; UPN-1 cells) is reported as 30%. It also gave a GI50 [5, 12] of 4.3 to 6.9 µM, a GI50 [5, 13] of 5.4 µM and a GI50 [5, 14] of 3.8 to 7.2 µM. It also gave a GI50 [5, 15] of 5 µM, a GI50 [6, 12] of 1.3 to 5.9 µM and a GI50 [6, 13] of 3.6 µM. The GI50 [6, 14] was 2.2 to 3.6 µM, the GI50 [6, 15] was 3 µM and the GI50 [7, 12] was 2.6 to 4.9 µM. It also gave a GI50 [7, 13] of 3.7 µM, a GI50 [7, 14] of 1.4 to 4.4 µM and a GI50 [7, 15] of 2.7 µM. The GI50 [8, 12] was 5.3 to 6.8 µM, the GI50 [8, 13] was 5.9 µM and the GI50 [8, 14] was 4.5 to 5.5 µM. The GI50 [8, 15] was 4.9 µM, the GI50 ([9]; 24 h, read-out: GI50 mean) was 4.3 µM and the GI50 ([9]; 24 h, read-out: GI50 range) was 1.3 to 6.9 µM. The GI50 ([9]; 48 h, read-out: GI50 mean) was 3.6 µM, the GI50 ([9]; 48 h, read-out: GI50 range) was 1.4 to 7.2 µM and the Syk phosphorylation inhibition ([10]; 1 μM) was “already detectable”. The Syk phosphorylation inhibition ([10]; 5 μM) was “significantly enhanced”, the Syk phosphorylation inhibition ([10]; 10 μM) was “almost completely achieved” and the Lyn phosphorylation inhibition ([11]; 1 μM) was “already detectable”. The Lyn phosphorylation inhibition ([11]; 5 μM) was “significantly enhanced”, the Lyn phosphorylation inhibition ([11]; 10 μM) was “almost completely achieved” and the remaining activity at 10 µM [1] was 9%. For the same molecule, the remaining activity at 10 µM [2] was -1% and the remaining activity at 10 µM [3] was 3%.
